Test results published in PMC11054487, “Species-Specific Unbound Fraction Differences in Highly Bound PFAS: A Comparative Study across Human, Rat, and Mouse Plasma and Albumin” (Toxics, 2024).

Key:
human plasma = assay: Presaturation equilibrium dialysis, fraction unbound in human plasma; assay type: in vitro ADME; parameters: fraction unbound at 18 h: dose or concentration left out as unconfirmed; conditions: 5 μM PFAS, 18 h, 37 °C, value (CV)
Procedure: (§1) Each PFAS:matrix combination was assessed in quadruplicate.
(§2) The injection volume for each sample was 5 µL.

rat (Wistar-Han) plasma = assay: Presaturation equilibrium dialysis, fraction unbound in rat plasma; assay type: in vitro ADME; parameters: fraction unbound at 18 h: dose or concentration left out as unconfirmed; conditions: 5 μM PFAS, 18 h, 37 °C, value (CV)
Procedure: as §1, §2

mouse (CD-1) plasma = assay: Presaturation equilibrium dialysis, fraction unbound in CD-1 mouse plasma; assay type: in vitro ADME; parameters: fraction unbound at 18 h: dose or concentration left out as unconfirmed; conditions: 5 μM PFAS, 18 h, 37 °C, value (CV)
Procedure: as §1, §2

mouse (C57BL/6) plasma = assay: Presaturation equilibrium dialysis, fraction unbound in C57BL/6 mouse plasma; assay type: in vitro ADME; parameters: fraction unbound at 18 h: dose or concentration left out as unconfirmed; conditions: 5 μM PFAS, 18 h, 37 °C, value (CV)
Procedure: as §1, §2

[1] = target: T1, human serum albumin (HSA) (Homo sapiens, UniProt P02768); assay: Presaturation equilibrium dialysis, fraction unbound in human serum albumin solution; assay type: in vitro ADME; conditions: 4% human serum albumin in PBS, value (CV)
T1 construct: purchased Sigma-Aldrich
Procedure: as §1, §2

rat serum albumin (RSA) = rat serum albumin (RSA) (Rattus norvegicus, UniProt P02770); assay: Presaturation equilibrium dialysis, fraction unbound in rat serum albumin solution; conditions: for fraction unbound at 18 h, 5 µM: rat
Procedure: (§3) The equilibrium dialysis device (EQD) HTD96 (Gales Ferry, CT, USA) was assembled according to manufacturer instructions. DPBS buffer solutions were prepared by adding PFAS with a concentration of either approximately five-fold of the estimated fu values based on initial available data or assumed to be 0.001 if no data was available. The dialysis apparatus and membranes assembled were pre-saturated (250 µL) three times in total with PFAS spiked DPBS buffer solution; twice for 1 h followed by a final 18-h pre-saturation. This same solution was used on the receiver side of the EQD. […] This 4% albumin was used in the albumin binding study to recapitulate plasma concentration, as human albumin concentration in plasma is 3.5–4.5 g/dL (530–680 µM). The matrix was diluted five-fold using DPBS for PFAS that had preliminary fu values lower than 0.01. Dimethylsulfoxide (DMSO) stock solutions of test PFAS were prepared at 500 μM and added to species-specific plasma or 4% albumin to a final concentration of 5 μM with 1% DMSO. Next, 150 μL of PFAS spiked DPBS was added to the receiver side of the membrane and 150 μL of compound spiked matrix was added to the donor side. […] Each PFAS:matrix combination was assessed in quadruplicate. For sample collection, 15 μL of buffer and 45 μL of matrix were sampled from the dialysis device into a 96-deep well plate and matrix-matched with either blank buffer or matrix. The samples were then quenched with 200 μL of cold acetonitrile containing internal standard (tolbutamide 30 nM and carbamazepine 12 nM) to precipitate proteins. Next, the plates were sealed and placed on a vortex mixer for 1 min, and then centrifuged (Beckman Coulter, Fullerton, CA, USA) at 3000 rpm for 5 min at room temperature. Lastly, the supernatant was transferred to a new 96-well plate, fully dried down under nitrogen gas, reconstituted with 200 µL of 50/50 (v/v) HPLC grade water/acetonitrile, and vortexed for 1 min prior to LC-MS/MS analysis.
(§4) LC-MS/MS analyses were performed on a SCIEX Triple Quad 5500 mass spectrometer (SCIEX, Concord, ON, Canada) equipped with Turbo Ion Spray interface. […] All instruments were controlled and synchronized by SCIEX Analyst software (version 1.6.3). Mobile phases compositions were 0.1% formic acid in water (mobile phase A) and 0.1% formic acid in acetonitrile (mobile phase B). […] The column was equilibrated at 5% B for 0.5 min before injecting samples. The total run time for each injection was 6 min. The chromatographic separation was conducted on a Phenomenex Kinetex C18 100Å 30 × 2.1 mm column (Torrance, CA, USA) with a flow rate of 0.5 mL/min. The injection volume for each sample was 5 µL. Multiple-reaction-monitoring (MRM) mode using specific precursor/product ion transitions was used for quantification. Data processing was performed using SCIEX Analyst software (version 1.6.3).
(§5) The calculations for fu are shown in Equations (1) and (2), where D is the dilution factor and fu,d is the diluted fu shown below. All calculations are based on area ratios (analyte peak area/IS peak area), and MS responses used for calculations were all in linear ranges. […] (1) Diluted fud=Receiver Area Ratio/Donor Area Ratio (2) Undiluted fu=1/D/1/fu,d−1+1/D
(§6) Albumin concentrations for rodents have been reported in the literature as rat: 3.0 g/dL; CD-1 mice: 2.7 g/dL; C57BL/6 mice: 2.9 g/dL [53].

[2] = target: mouse serum albumin (MSA) (Mus musculus, UniProt P07724); assay: Presaturation equilibrium dialysis, fraction unbound in mouse serum albumin solution; conditions: for fraction unbound at 18 h, 5 µM: mouse
Procedure: as §3, §4, §5, §6

rat plasma = test system: rat plasma; parameters: method as in PMID 12499116; conditions: ultrafiltration method; cited from earlier work
[3] = Presaturation equilibrium dialysis, fraction unbound in human plasma; assay type: in vitro ADME; parameters: fraction unbound at 18 h: dose or concentration left out as unconfirmed; conditions: human, 37 °C, value (CV), read-out: Fraction Unbound (fu) and Coefficient of Variance (CV), Human Plasma; for fraction unbound at 18 h, 5 µM: 5 μM PFAS
Procedure: as §1, §2

[4] = Presaturation equilibrium dialysis, fraction unbound in rat plasma; assay type: in vitro ADME; parameters: fraction unbound at 18 h: dose or concentration left out as unconfirmed; conditions: Wistar-Han rat plasma, 37 °C, value (CV), read-out: Fraction Unbound (fu) and Coefficient of Variance (CV), Rat Plasma; for fraction unbound at 18 h, 5 µM: 5 μM PFAS
Procedure: as §1, §2

[5] = Presaturation equilibrium dialysis, fraction unbound in CD-1 mouse plasma; assay type: in vitro ADME; parameters: fraction unbound at 18 h: dose or concentration left out as unconfirmed; conditions: 37 °C, value (CV), read-out: Fraction Unbound (fu) and Coefficient of Variance (CV), CD-1 Plasma; for fraction unbound at 18 h, 5 µM: 5 μM PFAS
Procedure: as §1, §2

[6] = Presaturation equilibrium dialysis, fraction unbound in C57BL/6 mouse plasma; assay type: in vitro ADME; parameters: fraction unbound at 18 h: dose or concentration left out as unconfirmed; conditions: 37 °C, value (CV), read-out: Fraction Unbound (fu) and Coefficient of Variance (CV), C57BL/6 Plasma; for fraction unbound at 18 h, 5 µM: 5 μM PFAS
Procedure: as §1, §2

[7] = humans; cited from earlier work
[8] = 3% rat serum albumin, value (%CV)
[9] = 4% rat serum albumin in PBS, 5 μM PFAS, value (CV)
[10] = 3% mouse serum albumin, value (%CV)
[11] = 4% mouse serum albumin in PBS, 5 μM PFAS, value (CV)
[12] = isolated protein, Fraction unbound (fu) and %CV, RSA 3%, 3% rat serum albumin, value (%CV)
[13] = isolated protein, Fraction unbound (fu) and %CV, MSA 3%, 3% mouse serum albumin, value (%CV)
[14] = 4% human serum albumin (HSA) solution, 5 μM PFAS, read-out: Fraction Unbound (fu) and Coefficient of Variance (CV), HSA
[15] = 4% rat serum albumin (RSA) solution, Fraction Unbound (fu) and Coefficient of Variance (CV), RSA, 4% rat serum albumin in PBS, 5 μM PFAS, value (CV)
[16] = 4% mouse serum albumin (MSA) solution, Fraction Unbound (fu) and Coefficient of Variance (CV), MSA, 4% mouse serum albumin in PBS, 5 μM PFAS, value (CV)

Sequence of mouse serum albumin (MSA) (P07724 25-608): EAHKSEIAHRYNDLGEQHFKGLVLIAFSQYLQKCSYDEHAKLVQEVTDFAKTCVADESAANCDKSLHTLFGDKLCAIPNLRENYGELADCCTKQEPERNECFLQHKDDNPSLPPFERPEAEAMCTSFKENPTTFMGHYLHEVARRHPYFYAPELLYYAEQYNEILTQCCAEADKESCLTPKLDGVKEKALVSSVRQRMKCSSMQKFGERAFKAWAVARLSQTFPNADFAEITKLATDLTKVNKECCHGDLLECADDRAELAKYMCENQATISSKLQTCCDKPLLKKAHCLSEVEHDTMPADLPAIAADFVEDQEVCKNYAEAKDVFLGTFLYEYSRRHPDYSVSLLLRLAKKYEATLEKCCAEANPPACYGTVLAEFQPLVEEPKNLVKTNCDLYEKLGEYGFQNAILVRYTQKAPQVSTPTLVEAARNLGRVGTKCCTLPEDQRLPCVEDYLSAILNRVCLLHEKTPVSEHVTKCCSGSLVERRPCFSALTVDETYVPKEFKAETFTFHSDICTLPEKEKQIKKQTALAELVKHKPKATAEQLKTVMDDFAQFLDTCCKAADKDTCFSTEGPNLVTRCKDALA
Sequence of rat serum albumin (RSA) (P02770 25-608): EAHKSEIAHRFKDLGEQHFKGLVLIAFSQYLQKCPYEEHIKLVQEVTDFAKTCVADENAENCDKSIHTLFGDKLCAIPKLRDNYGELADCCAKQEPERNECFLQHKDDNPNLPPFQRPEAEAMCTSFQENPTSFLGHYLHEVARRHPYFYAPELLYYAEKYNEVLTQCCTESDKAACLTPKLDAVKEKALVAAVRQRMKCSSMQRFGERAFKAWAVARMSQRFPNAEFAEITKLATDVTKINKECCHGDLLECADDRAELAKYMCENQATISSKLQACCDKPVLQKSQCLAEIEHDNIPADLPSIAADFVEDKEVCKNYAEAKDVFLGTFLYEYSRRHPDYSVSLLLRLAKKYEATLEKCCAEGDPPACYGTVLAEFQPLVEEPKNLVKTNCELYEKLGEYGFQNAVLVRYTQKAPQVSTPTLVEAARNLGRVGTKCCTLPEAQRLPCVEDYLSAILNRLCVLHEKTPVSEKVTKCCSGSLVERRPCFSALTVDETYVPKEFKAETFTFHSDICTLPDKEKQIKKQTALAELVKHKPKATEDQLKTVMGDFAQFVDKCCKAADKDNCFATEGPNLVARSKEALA
T1 sequence (P02768 25-609): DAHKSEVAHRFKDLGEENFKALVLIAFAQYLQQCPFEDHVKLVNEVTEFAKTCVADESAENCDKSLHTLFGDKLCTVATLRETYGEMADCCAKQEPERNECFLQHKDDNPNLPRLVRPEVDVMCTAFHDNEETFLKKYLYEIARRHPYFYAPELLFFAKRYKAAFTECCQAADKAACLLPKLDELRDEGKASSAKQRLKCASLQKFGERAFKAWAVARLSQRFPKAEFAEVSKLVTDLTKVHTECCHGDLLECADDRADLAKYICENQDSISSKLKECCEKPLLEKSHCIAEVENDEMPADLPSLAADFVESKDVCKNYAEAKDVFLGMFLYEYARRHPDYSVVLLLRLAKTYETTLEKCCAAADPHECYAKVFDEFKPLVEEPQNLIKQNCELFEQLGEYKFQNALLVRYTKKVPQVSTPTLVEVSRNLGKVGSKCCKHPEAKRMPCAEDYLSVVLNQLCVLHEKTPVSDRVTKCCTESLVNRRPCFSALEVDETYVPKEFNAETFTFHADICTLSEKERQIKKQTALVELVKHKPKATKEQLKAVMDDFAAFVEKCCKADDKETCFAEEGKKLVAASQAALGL

Structure (SMILES) | Fraction Unbound (fu) and Coefficient of Variance (CV), Human Plasma (human plasma) | Fraction Unbound (fu) and Coefficient of Variance (CV), Rat Plasma (rat (Wistar-Han) plasma) | Fraction Unbound (fu) and Coefficient of Variance (CV), CD-1 Plasma (mouse (CD-1) plasma) | Fraction Unbound (fu) and Coefficient of Variance (CV), C57BL/6 Plasma (mouse (C57BL/6) plasma) | Fraction unbound (fu) and %CV, RSA 3% (rat serum albumin (RSA); [8]) | Fraction Unbound (fu) and Coefficient of Variance (CV), RSA (rat serum albumin (RSA); [9]) | Fraction unbound (fu) and %CV, MSA 3% [2, 10] | Fraction Unbound (fu) and Coefficient of Variance (CV), MSA [2, 11] | bound (rat plasma) | fraction unbound at 18 h [4] | fraction unbound at 18 h [5] | fraction unbound at 18 h [6] | fraction unbound at 18 h, 5 µM (rat serum albumin (RSA); [12]) | fraction unbound at 18 h, 5 µM [2, 13] | fraction unbound at 18 h, 5 µM [3] | fraction unbound at 18 h, 5 µM [4] | fraction unbound at 18 h, 5 µM [5] | fraction unbound at 18 h, 5 µM [6] | fraction unbound at 18 h, 5 µM (rat serum albumin (RSA); [15]) | fraction unbound at 18 h, 5 µM [2, 16] | further results
O=C(O)C(F)(F)C(F)(F)C(F)(F)C(F)(F)C(F)(F)C(F)(F)C(F)(F)C(F)(F)C(F)(F)F [PFDA, perfluorodecanoic acid] | 0.000618(9%) | 0.001(9%) | 0.0015(4%) | 0.00127(9%) | 0.000494 (19%) | 0.000608(19%) | 0.000839 (26%) | 0.00102(26%) | greater than 98% | – | – | – | – | – | – | – | – | – | – | – | Fraction Unbound (fu) and Coefficient of Variance (CV), HSA ([1]; 5 μM PFAS): 0.000584(8%)
O=C(O)C(F)(F)C(F)(F)C(F)(F)C(F)(F)C(F)(F)C(F)(F)F [PFHpA, perfluoroheptanoic acid] | – | – | – | – | – | – | – | – | greater than 98% | 0.00454 | 0.0331 | 0.0323 | 0.00257 | 0.00954 | – | – | – | – | – | – | fraction unbound at 18 h ([3]; plasma): 0.00445; fraction unbound at 18 h, 5 µM (rat serum albumin (RSA); isolated protein, Fraction Unbound (fu) and Coefficient of Variance (CV), RSA, 4% rat serum albumin in PBS, 5 μM PFAS, value (CV)): 0.00313; fraction unbound at 18 h, 5 µM ([2]; isolated protein, Fraction Unbound (fu) and Coefficient of Variance (CV), MSA, 4% mouse serum albumin in PBS, 5 μM PFAS, value (CV)): 0.0118
O=S(=O)(O)C(F)(F)C(F)(F)C(F)(F)C(F)(F)C(F)(F)C(F)(F)F [PFHxS, perfluorohexanesulfonic acid] | – | – | – | – | – | – | – | – | – | – | – | – | 0.00047 | 0.00181 | 0.000695 | 0.00076 | 0.0128 | 0.013 | 0.000573 | 0.00225 | fraction unbound at 18 h, 5 µM [1, 14]: 0.000245
O=C(O)C(F)(F)C(F)(F)C(F)(F)C(F)(F)C(F)(F)C(F)(F)C(F)(F)C(F)(F)F [PFNA, perfluorononanoic acid] | 0.00187(3%) | 0.0021(6%) | 0.00455(6%) | 0.00438(22%) | 0.00217 (2%) | 0.00271(2%) | 0.00292 (6%) | 0.00364(6%) | greater than 98% | – | – | – | – | – | – | – | – | – | – | – | –
O=C(O)C(F)(F)C(F)(F)C(F)(F)C(F)(F)C(F)(F)C(F)(F)C(F)(F)F [PFOA, perfluorooctanoic acid] | – | – | – | – | – | – | – | – | greater than 98% | – | – | – | 0.00157 | 0.00411 | 0.0025 | 0.00298 | 0.0152 | 0.0142 | 0.00196 | 0.00513 | fraction unbound at 18 h, 5 µM [1, 14]: 0.00285; t1/2 [7]: 2.3–5.4 years
NS(=O)(=O)C(F)(F)C(F)(F)C(F)(F)C(F)(F)C(F)(F)C(F)(F)C(F)(F)C(F)(F)F [PFOSA, perfluorooctanesulfonamide] | – | – | – | – | – | – | – | – | – | 0.00197 | 0.00326 | 0.0023 | 0.000952 | 0.00102 | – | – | – | – | 0.00118 | 0.00127 | fraction unbound at 18 h [3]: 0.0019; fraction unbound at 18 h ([1]; 4% human serum albumin (HSA) solution, read-out: Fraction Unbound (fu) and Coefficient of Variance (CV), HSA): 0.00152
